In experiment [1] the target is T1, Peroxiredoxin-2 (Homo sapiens) (UniProt P32119).
T1 sequence (whole entry): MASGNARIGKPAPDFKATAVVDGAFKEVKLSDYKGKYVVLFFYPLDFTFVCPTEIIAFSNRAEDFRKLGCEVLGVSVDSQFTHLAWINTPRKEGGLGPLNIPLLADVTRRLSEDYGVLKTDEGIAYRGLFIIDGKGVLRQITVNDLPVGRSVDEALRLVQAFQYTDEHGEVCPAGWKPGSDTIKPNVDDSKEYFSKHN
In words: Binding affinity to PRDX2 in human DOHH-2 cells by MS analysis. In kind it is cell-based.

Experiment [2] has as its system DOHH-2. In words: Induction of apoptosis in human DOHH-2 cells assessed as increase in cleaved caspase-3 expression at 0.5 to 8 uM measured after 24 hrs by Western blot analysis. The class given is functional, cell-based. The following applies: dose 0.5-8 µM. For orientation: A western blot detects proteins with antibodies after separation by electrophoresis.
Experiment [3] has as its target T2, Thioredoxin-dependent peroxide reductase, mitochondrial (Homo sapiens) (UniProt P30048).
T2 sequence (whole entry): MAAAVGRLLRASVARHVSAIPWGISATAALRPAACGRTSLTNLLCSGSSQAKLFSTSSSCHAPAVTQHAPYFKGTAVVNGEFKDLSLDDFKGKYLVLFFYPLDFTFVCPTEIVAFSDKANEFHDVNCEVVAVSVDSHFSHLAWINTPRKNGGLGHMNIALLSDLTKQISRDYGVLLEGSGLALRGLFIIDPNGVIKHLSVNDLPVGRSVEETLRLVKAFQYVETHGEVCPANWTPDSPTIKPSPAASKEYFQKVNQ
In words: Binding affinity to PRDX3 in human DOHH-2 cells measured after 6 hrs by pull-down assay. In kind it is cell-based. As to conditions: DDE = dose-dependent effect.

Another experiment relates to Jurkat. Description: Cytotoxicity against human Jurkat T cells measured after 72 hrs. In kind it is functional, cell-based.
A further experiment is filed under the species Homo sapiens. Description: Binding affinity to ADP-bound full-length human HSP70 assessed as cysteine adduct formation at SBDalpha domain by measuring half life at 1 mM by fluorescence spectra analysis.
Experiment [4] has as its target T3, Glutathione S-transferase omega-1 (Homo sapiens) (UniProt P78417).
T3 sequence (whole entry): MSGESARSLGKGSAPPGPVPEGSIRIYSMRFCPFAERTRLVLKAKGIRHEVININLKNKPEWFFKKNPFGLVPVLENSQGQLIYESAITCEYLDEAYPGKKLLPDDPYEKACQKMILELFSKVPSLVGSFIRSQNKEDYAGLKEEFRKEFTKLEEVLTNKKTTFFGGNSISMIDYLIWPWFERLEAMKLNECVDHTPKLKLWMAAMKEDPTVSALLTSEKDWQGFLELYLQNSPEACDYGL
In words: Binding affinity to GSTO1 in human DOHH-2 cells measured after 6 hrs by pull-down assay. In kind it is cell-based. The following applies: DDE = dose-dependent effect.

Experiment [5] deals with T4, D-3-phosphoglycerate dehydrogenase (Homo sapiens) (UniProt O43175).
T4 sequence (whole entry): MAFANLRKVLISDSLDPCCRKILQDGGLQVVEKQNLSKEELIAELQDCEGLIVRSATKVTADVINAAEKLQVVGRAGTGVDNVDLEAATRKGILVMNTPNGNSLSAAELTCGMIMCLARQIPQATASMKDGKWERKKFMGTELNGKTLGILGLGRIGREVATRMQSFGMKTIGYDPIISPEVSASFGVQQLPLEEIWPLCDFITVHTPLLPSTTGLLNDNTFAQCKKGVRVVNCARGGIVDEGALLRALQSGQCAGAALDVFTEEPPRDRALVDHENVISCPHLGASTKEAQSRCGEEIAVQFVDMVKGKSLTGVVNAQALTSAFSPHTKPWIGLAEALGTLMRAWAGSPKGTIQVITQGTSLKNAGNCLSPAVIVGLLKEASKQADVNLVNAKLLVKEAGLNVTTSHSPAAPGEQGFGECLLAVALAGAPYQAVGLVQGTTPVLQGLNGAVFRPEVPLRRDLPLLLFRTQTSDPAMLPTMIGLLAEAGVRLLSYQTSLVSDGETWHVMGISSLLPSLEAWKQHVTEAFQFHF
Description: Binding affinity to D-3-phosphoglycerate dehydrogenase in human MDA-MB-453 cells measured after 6 hrs by pull-down assay. The class given is cell-based. As to conditions: dose <= 20.0 µM, DDE = dose-dependent effect.

Experiment [6] concerns DOHH-2. In words: Cytotoxicity against human DOHH-2 cells measured after 72 hrs. The class given is functional, cell-based.
Experiment [7] concerns the target Glutathione S-transferase P (Homo sapiens) (UniProt P09211). In words: Binding affinity to GSTP1 in human MDA-MB-453 cells measured after 6 hrs by pull-down assay. The class given is cell-based. As to conditions: dose <= 20.0 µM, DDE = dose-dependent effect.
In experiment [8] the test system is DOHH-2. Description: Induction of autophagy in human DOHH-2 cells assessed as reduction in p62 expression at 0.5 to 8 uM measured after 24 hrs by Western blot analysis. The class given is functional, cell-based. As to conditions: dose 0.5-8 µM.
In experiment [9] the target is T1, Peroxiredoxin-2 (Homo sapiens). In words: Binding affinity to PRDX2 in human DOHH-2 cells measured after 6 hrs by pull-down assay. As to conditions: DDE = dose-dependent effect. In kind it is cell-based.
In experiment [10] the target is T4, D-3-phosphoglycerate dehydrogenase (Homo sapiens). Description: Binding affinity to D-3-phosphoglycerate dehydrogenase in human DOHH-2 cells measured after 6 hrs by pull-down assay. The class given is cell-based. The following applies: DDE = dose-dependent effect.
Experiment [11] relates to DOHH-2. In words: Induction of apoptosis in human DOHH-2 cells assessed as increase in cleaved PARP expression at 8 uM measured after 4 to 24 hrs by Western blot analysis. In kind it is functional, cell-based. As to conditions: time 4-24 hrs.
The test system of experiment [12] is DOHH-2. Description: Up regulation of HSP90alpha expression in human DOHH-2 cells at 0.5 to 8 uM measured after 24 hrs by Western blot analysis. The class given is functional, cell-based. As to conditions: dose 0.5-8 µM.
The test system of experiment [13] is DOHH-2. In words: Induction of autophagy in human DOHH-2 cells assessed as change in transformation of LC3B1 to LC3B2 expression at 8 uM measured after 4 to 24 hrs by Western blot analysis. In kind it is functional, cell-based. As to conditions: time 4-24 hrs.
In experiment [14] the target is T5, Protein disulfide-isomerase A6 (Homo sapiens) (UniProt Q15084).
T5 sequence (whole entry): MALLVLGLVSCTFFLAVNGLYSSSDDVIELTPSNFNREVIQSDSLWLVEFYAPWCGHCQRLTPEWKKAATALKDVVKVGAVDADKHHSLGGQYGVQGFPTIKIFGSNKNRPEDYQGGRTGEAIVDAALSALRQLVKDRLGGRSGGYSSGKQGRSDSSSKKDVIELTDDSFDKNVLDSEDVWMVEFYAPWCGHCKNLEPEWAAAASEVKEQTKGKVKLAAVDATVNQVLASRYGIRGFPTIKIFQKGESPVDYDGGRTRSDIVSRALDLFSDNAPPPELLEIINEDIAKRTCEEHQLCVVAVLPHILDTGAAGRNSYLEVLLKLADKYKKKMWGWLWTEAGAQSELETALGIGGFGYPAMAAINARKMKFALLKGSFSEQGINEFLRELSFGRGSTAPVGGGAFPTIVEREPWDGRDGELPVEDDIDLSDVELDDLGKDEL
Description: Binding affinity to PDIA6 in human DOHH-2 cells by MS analysis. In kind it is cell-based.

The target of experiment [15] is T1, Peroxiredoxin-2 (Homo sapiens). In words: Binding affinity to PRDX2 in human MDA-MB-453 cells measured after 6 hrs by pull-down assay. The following applies: dose <= 20.0 µM, DDE = dose-dependent effect. In kind it is cell-based.
Experiment [16] deals with T6, Peroxiredoxin-1 (Homo sapiens) (UniProt Q06830).
T6 sequence (whole entry): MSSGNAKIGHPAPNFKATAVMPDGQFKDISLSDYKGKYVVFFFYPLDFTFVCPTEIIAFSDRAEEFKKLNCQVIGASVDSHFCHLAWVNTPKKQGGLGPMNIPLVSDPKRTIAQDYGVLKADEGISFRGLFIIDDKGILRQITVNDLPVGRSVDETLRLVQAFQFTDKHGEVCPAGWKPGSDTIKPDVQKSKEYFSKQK
In words: Binding affinity to PRDX1 in human DOHH-2 cells measured after 6 hrs by pull-down assay. In kind it is cell-based. As to conditions: DDE = dose-dependent effect.

Activity calls are given as the source filed them. The calls are words filed in the database; no cut-off is given here.

Chain of Glutathione S-transferase P (Homo sapiens) (P09211 2-210 limits assumed): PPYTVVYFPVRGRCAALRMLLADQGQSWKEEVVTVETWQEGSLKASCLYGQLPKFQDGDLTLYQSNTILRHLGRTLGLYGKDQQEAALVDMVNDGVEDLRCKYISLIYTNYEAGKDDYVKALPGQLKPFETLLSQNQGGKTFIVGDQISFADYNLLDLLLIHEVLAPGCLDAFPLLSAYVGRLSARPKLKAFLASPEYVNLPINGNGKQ

As for `C#Cc1cccc(C#CS(N)(=O)=O)c1`, the result (in experiment [1]; in the experiment on DOHH-2 [2]; with Jurkat; with DOHH-2 [6]; in the experiment with DOHH-2 [8]; in the experiment with DOHH-2 [11]) was Active. Besides, the outcome (in the experiment on DOHH-2 [12]; in the experiment with DOHH-2 [13]; in experiment [14]) was Active. Further, the Activity entry in experiment [3], in [4], in [5], in experiment [7], in experiment [9] and in experiment [10] was “Dde” each time. Moreover, the Activity result in experiment [15] and in [16] was “Dde” each time. Besides, the T1/2 in the experiment filed under Homo sapiens was found to be 1.53 h.
